The test addresses USP7 (Homo sapiens, UniProt Q93009). Put plainly: USP7 inhibitory potency (IC50). In kind it is biochemical. How it is done: Activity for compounds described herein is provided in Table 2, wherein potency levels are provided as follows: (Potency: USP7 IC50: A<0.01 μM; B=0.01-0.1 μM; C=>0.1 μM.
USP7, sequence (Q93009 whole entry): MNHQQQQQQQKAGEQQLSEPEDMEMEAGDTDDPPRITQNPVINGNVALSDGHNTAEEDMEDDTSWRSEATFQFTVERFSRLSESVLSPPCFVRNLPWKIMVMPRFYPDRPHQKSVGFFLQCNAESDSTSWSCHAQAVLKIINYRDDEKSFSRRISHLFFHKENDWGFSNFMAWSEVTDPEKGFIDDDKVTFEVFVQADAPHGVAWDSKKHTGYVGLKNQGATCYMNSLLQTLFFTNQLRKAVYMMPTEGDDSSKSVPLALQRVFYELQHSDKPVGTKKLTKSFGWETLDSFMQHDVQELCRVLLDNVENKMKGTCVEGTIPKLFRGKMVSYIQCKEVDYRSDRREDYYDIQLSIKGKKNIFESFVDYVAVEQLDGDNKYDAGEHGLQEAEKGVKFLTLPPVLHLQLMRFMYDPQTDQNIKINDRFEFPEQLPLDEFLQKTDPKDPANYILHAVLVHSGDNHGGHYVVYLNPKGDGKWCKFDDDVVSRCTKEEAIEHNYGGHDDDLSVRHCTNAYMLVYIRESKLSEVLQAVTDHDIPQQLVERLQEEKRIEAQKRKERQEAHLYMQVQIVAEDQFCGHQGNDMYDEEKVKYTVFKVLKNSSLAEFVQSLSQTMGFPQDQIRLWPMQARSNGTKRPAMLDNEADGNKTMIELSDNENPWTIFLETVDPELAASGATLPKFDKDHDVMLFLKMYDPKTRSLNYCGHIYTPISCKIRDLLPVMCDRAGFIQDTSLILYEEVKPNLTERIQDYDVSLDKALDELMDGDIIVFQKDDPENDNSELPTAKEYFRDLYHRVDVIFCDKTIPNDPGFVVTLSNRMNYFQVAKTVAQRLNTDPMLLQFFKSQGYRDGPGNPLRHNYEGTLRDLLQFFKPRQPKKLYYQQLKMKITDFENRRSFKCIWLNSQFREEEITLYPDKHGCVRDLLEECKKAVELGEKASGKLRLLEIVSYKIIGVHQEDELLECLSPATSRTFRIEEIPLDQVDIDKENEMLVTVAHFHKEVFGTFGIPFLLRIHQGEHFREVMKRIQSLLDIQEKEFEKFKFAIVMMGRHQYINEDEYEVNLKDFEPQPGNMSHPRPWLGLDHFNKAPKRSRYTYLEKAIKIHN
As for `Cc1cc(Cl)cc(-c2ncnc3cc(CN4C(=O)C5CC5C4=O)sc23)c1C[C@H]1CN(C(=O)C(F)(F)F)CCO1` (stereo partly drawn) [Example 198, 3-((4-(5-chloro-3-methyl-2-(((S)-4-(2,2,2-trifluoroacetyl)morpholin-2-yl)methyl)phenyl)thieno[3,2-d]pyrimidin-6-yl)methyl)-3-azabicyclo[3.1.0]hexane-2,4-dione], the IC50 is greater than 100 nM.
As for `Cc1cc(Cl)cc(-c2ncnc3cc(CN4C(=O)C5CC5C4=O)sc23)c1C[C@@H]1CNCCO1` (stereo partly drawn) [Example 182, 3-((4-(5-chloro-3-methyl-2-(((R)-morpholin-2-yl)methyl)phenyl)thieno[3,2-d]pyrimidin-6-yl)methyl)-3-azabicyclo[3.1.0]hexane-2,4-dione], the IC50 was less than 10 nM.
Then `Cc1cc(Cl)cc(-c2ncnc3cc(CN4C(=O)CCN(C)C4=O)sc23)c1CC1CNCC2(CCC2)O1` (stereo not drawn) [Example 222, 3-((4-(2-((5-oxa-8-azaspiro[3.5]nonan-6-yl)methyl)-5-chloro-3-methylphenyl)thieno[3,2-d]pyrimidin-6-yl)methyl)-1-methyldihydropyrimidine-2,4(1H,3H)-dione], with less than 10 nM; and `Cc1cc(Cl)cc(-c2ncnc3cc(Cn4c(=O)ccn(CC(F)(F)F)c4=O)sc23)c1CC1CNCCO1` (stereo not drawn) [Example 167, 3-((4-(5-chloro-3-methyl-2-(morpholin-2-ylmethyl)phenyl)thieno[3,2-d]pyrimidin-6-yl)methyl)-1-(2,2,2-trifluoroethyl)pyrimidine-2,4(1H,3H)-dione], with less than 10 nM.
As for `Cc1cc(Cl)cc(-c2ncnc3cc(CN4C(=O)CCN(C)C4=O)sc23)c1CC1CNCCO1` (stereo not drawn) [Example 164, 3-((4-(5-chloro-3-methyl-2-(morpholin-2-ylmethyl)phenyl)thieno[3,2-d]pyrimidin-6-yl)methyl)-1-methyldihydropyrimidine-2,4(1H,3H)-dione], the IC50 was less than 10 nM.
The molecule `Cc1cc(Cl)cc(-c2ccnc3cc(CN4C(=O)CCC4=O)sc23)c1CN1C[C@@H](C)NC[C@@H]1C` [Example 44, 1-((7-(5-chloro-2-(((2S,5R)-2,5-dimethylpiperazin-1-yl)methyl)-3-methylphenyl)thieno[3,2-b]pyridin-2-yl)methyl)pyrrolidine-2,5-dione] had an IC50 of less than 10 nM.
For the molecule `Cc1cc(Cl)cc(-c2ccnc3cc(CN4C(=O)C5CC5C4=O)sc23)c1CN1C[C@@H](C)NC[C@H]1C` (stereo partly drawn) [Example 34, 3-((7-(5-chloro-2-(((2R,5R)-2,5-dimethylpiperazin-1-yl)methyl)-3-methylphenyl)thieno[3,2-b]pyridin-2-yl)methyl)-3-azabicyclo[3.1.0]hexane-2,4-dione], the IC50 is less than 10 nM.
In turn, `Cc1cc(Cl)cc(-c2ccnc3cc(CN4C(=O)C5CCCN5C4=O)sc23)c1CC1CNCCO1` (stereo not drawn) [Example 116, 2-((7-(5-chloro-3-methyl-2-(morpholin-2-ylmethyl)phenyl)thieno[3,2-b]pyridin-2-yl)methyl)tetrahydro-1H-pyrrolo[1,2-c]imidazole-1,3(2H)-dione] had an IC50 of less than 10 nM.
Then `Cc1cc(Cl)cc(-c2ncnc3cc(CN4C(=O)C5CC5C4=O)sc23)c1C[C@H]1CNCCO1` (stereo partly drawn) [Example 181, 3-((4-(5-chloro-3-methyl-2-(((S)-morpholin-2-yl)methyl)phenyl)thieno[3,2-d]pyrimidin-6-yl)methyl)-3-azabicyclo[3.1.0]hexane-2,4-dione], with 10 to 100 nM; and `Cc1cc(Cl)cc(-c2ncnc3cc(CN4C(=O)CN(C)C4=O)sc23)c1C[C@@H]1CNCC(C)(C)O1` [Example 275, (R)-3-((4-(5-chloro-2-((6,6-dimethylmorpholin-2-yl)methyl)-3-methylphenyl)thieno[3,2-d]pyrimidin-6-yl)methyl)-1-methylimidazolidine-2,4-dione], with less than 10 nM.
In turn, `Cc1cc(Cl)cc(-c2ccnc3cc(CN4C(=O)C5CC5C4=O)sc23)c1CC1CNCC2(CC2)O1` (stereo not drawn) [Example 132, 3-((7-(2-((4-oxa-7-azaspiro[2.5]octan-5-yl)methyl)-5-chloro-3-methylphenyl)thieno[3,2-b]pyridin-2-yl)methyl)-3-azabicyclo[3.1.0]hexane-2,4-dione] registered an IC50 of less than 10 nM.
Consider `Cc1cc(Cl)cc(-c2ncnc3cc(Cn4c(=O)ccn(C)c4=O)sc23)c1CC1CNCCO1` (stereo not drawn) [Example 162, 3-((4-(5-chloro-3-methyl-2-(morpholin-2-ylmethyl)phenyl)thieno[3,2-d]pyrimidin-6-yl)methyl)-1-methylpyrimidine-2,4(1H,3H)-dione], for which the IC50 was less than 10 nM.
On to `CC1(C)CNCC(Cc2c(Cl)cc(Cl)cc2-c2ncnc3cc(CN4C(=O)C5CC5C4=O)sc23)O1` (stereo not drawn) [Example 227, 3-((4-(3,5-dichloro-2-((6,6-dimethylmorpholin-2-yl)methyl)phenyl)thieno[3,2-d]pyrimidin-6-yl)methyl)-3-azabicyclo[3.1.0]hexane-2,4-dione], for which the IC50 is less than 10 nM.
Then `Cn1ccc(=O)n(Cc2cc3ncnc(-c4cc(Cl)cc(Cl)c4CC4CNCC(C)(C)O4)c3s2)c1=O` (stereo not drawn) [Example 252, 3-((4-(3,5-dichloro-2-((6,6-dimethylmorpholin-2-yl)methyl)phenyl)thieno[3,2-d]pyrimidin-6-yl)methyl)-1-methylpyrimidine-2,4(1H,3H)-dione], with less than 10 nM; and `Cc1cc(Cl)cc(-c2ccnc3cc(CN4C(=O)CCC4=O)sc23)c1CN1CCN(C(C)C)C[C@@H]1C` [Example 21, (S)-1-((7-(5-chloro-2-((4-isopropyl-2-methylpiperazin-1-yl)methyl)-3-methylphenyl)thieno[3,2-b]pyridin-2-yl)methyl)pyrrolidine-2,5-dione], with less than 10 nM; and `Cc1cc(Cl)cc(-c2ncnc3cc(CN4C(=O)CCN(CC(F)(F)F)C4=O)sc23)c1C[C@@H]1CNCC(C)(C)O1` [Example 236, (R)-3-((4-(5-chloro-2-((6,6-dimethylmorpholin-2-yl)methyl)-3-methylphenyl)thieno[3,2-d]pyrimidin-6-yl)methyl)-1-(2,2,2-trifluoroethyl)dihydropyrimidine-2,4(1H,3H)-dione], with less than 10 nM.
Then `Cc1cc(Cl)cc(-c2ccnc3cc(CN4C(=O)CCC4=O)sc23)c1CC1CNCC(C)(C)O1` (stereo not drawn) [Example 119, 1-((7-(5-chloro-2-((6,6-dimethylmorpholin-2-yl)methyl)-3-methylphenyl)thieno[3,2-b]pyridin-2-yl)methyl)pyrrolidine-2,5-dione], with less than 10 nM; and `Cc1cc(Cl)cc(-c2ncnc3cc(Cn4c(=O)cc[nH]c4=O)sc23)c1C[C@@H]1CNCC(C)(C)O1` [Example 266, (R)-3-((4-(5-chloro-2-((6,6-dimethylmorpholin-2-yl)methyl)-3-methylphenyl)thieno[3,2-d]pyrimidin-6-yl)methyl)pyrimidine-2,4(1H,3H)-dione], with 10 to 100 nM; and `Cc1cc(Cl)cc(-c2ncnc3cc(CN4C(=O)CCN(C)C4=O)sc23)c1CC1CNCC(C)(C)O1` (stereo not drawn) [Example 193, 3-((4-(5-chloro-2-((6,6-dimethylmorpholin-2-yl)methyl)-3-methylphenyl)thieno[3,2-d]pyrimidin-6-yl)methyl)-1-methyldihydropyrimidine-2,4(1H,3H)-dione], with less than 10 nM.
With `Cc1cc(Cl)cc(-c2ncnc3cc(Cn4c(=O)ccn(C)c4=O)sc23)c1CC1CNCC2(CCC2)O1` (stereo not drawn) [Example 223, 3-((4-(2-((5-oxa-8-azaspiro[3.5]nonan-6-yl)methyl)-5-chloro-3-methylphenyl)thieno[3,2-d]pyrimidin-6-yl)methyl)-1-methylpyrimidine-2,4(1H,3H)-dione], the IC50 is less than 10 nM.
Then `C[C@H]1CNCCN1Cc1ccc(Cl)cc1-c1ncnc2cc(CN3C(=O)C4CC4C3=O)sc12` (stereo partly drawn) [Example 64, 3-((4-(5-chloro-2-(((S)-2-methylpiperazin-1-yl)methyl)phenyl)thieno[3,2-d]pyrimidin-6-yl)methyl)-3-azabicyclo[3.1.0]hexane-2,4-dione], with 10 to 100 nM; and `Cc1cc(Cl)cc(-c2ncnc3cc(CN4C(=O)C5CCCN5C4=O)sc23)c1CN1[C@@H](C)CNC[C@@H]1C` (stereo partly drawn) [Example 86, 2-((4-(5-chloro-2-(((2S,6S)-2,6-dimethylpiperazin-1-yl)methyl)-3-methylphenyl)thieno[3,2-d]pyrimidin-6-yl)methyl)tetrahydro-1H-pyrrolo[1,2-c]imidazole-1,3(2H)-dione], with less than 10 nM; and `Cc1cc(Cl)cc(-c2ccnc3cc(CN4C(=O)C5CC5C4=O)sc23)c1C[C@@H]1CN[C@@H](C)CO1` (stereo partly drawn) [Example 98, 3-((7-(5-chloro-3-methyl-2-((5-methylmorpholin-2-yl)methyl)phenyl)thieno[3,2-b]pyridin-2-yl)methyl)-3-azabicyclo[3.1.0]hexane-2,4-dione], with less than 10 nM.
Then `Cc1cc(Cl)cc(-c2ncnc3cc(Cn4c(=O)c(F)cn(C(C)C)c4=O)sc23)c1CC1CNCCO1` (stereo not drawn) [Example 168, 3-((4-(5-chloro-3-methyl-2-(morpholin-2-ylmethyl)phenyl)thieno[3,2-d]pyrimidin-6-yl)methyl)-5-fluoro-1-isopropylpyrimidine-2,4(1H,3H)-dione], with less than 10 nM; and `C[C@H]1CNC[C@H](C)N1Cc1c(Cl)cc(Cl)cc1-c1ccnc2cc(CN3C(=O)CCC3=O)sc12` [Example 48, 1-((7-(3,5-dichloro-2-(((2S,6S)-2,6-dimethylpiperazin-1-yl)methyl)phenyl)thieno[3,2-b]pyridin-2-yl)methyl)pyrrolidine-2,5-dione], with less than 10 nM.
Turning to `Cc1cc(Cl)cc(-c2ncnc3cc(CN4C(=O)C5CC5C4=O)sc23)c1CC1OCCNC1(C)C` (stereo not drawn) [Example 159, 3-((4-(5-chloro-2-((3,3-dimethylmorpholin-2-yl)methyl)-3-methylphenyl)thieno[3,2-d]pyrimidin-6-yl)methyl)-3-azabicyclo[3.1.0]hexane-2,4-dione], the IC50 lay within 10 to 100 nM.
Regarding `Cc1cc(Cl)cc(-c2ccnc3cc(CN4C(=O)C5CC5C4=O)sc23)c1CN1CCNC(=O)C1C` (stereo not drawn) [Example 40, 3-((7-(5-chloro-3-methyl-2-((2-methyl-3-oxopiperazin-1-yl)methyl)phenyl)thieno[3,2-b]pyridin-2-yl)methyl)-3-azabicyclo[3.1.0]hexane-2,4-dione], the IC50 lay within 10 to 100 nM.

Values taken from patent publication US11084829B2, “Ubiquitin-specific-processing protease 7 (USP7) modulators and uses thereof” (RAPT THERAPEUTICS, INC., priority 2018, dated 2021).
